The test has as its target Histone deacetylase 3/Nuclear receptor corepressor 2 (HDAC3/NCoR2) (Homo sapiens, UniProt O15379+Q9Y618). Put plainly: Inhibition of human C-terminal His-tagged HDAC3 (1 to 428 residues)/human N-terminal GST-tagged NcoR2 (395 to 489 residues) expressed in sf9 cells using p53 (379 to 382 residues) (Arg-His-Lys(Ac)-Lys(Ac)) as substrate by fluorimetric assay.

Sequence of Histone deacetylase 3/Nuclear receptor corepressor 2 (HDAC3/NCoR2) (O15379 whole entry, the tested form may be a part): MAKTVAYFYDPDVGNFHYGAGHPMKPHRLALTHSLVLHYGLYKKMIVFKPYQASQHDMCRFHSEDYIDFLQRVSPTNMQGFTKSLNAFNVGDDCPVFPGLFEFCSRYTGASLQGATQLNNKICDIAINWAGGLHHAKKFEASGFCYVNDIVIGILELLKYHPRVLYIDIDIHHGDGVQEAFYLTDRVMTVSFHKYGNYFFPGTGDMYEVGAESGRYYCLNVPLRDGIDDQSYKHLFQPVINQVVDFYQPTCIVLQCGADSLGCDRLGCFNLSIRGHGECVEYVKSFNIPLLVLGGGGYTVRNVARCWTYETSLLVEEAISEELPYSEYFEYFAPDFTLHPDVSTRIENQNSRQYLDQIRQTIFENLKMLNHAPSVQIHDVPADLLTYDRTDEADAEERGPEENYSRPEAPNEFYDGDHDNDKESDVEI
Sequence of Histone deacetylase 3/Nuclear receptor corepressor 2 (HDAC3/NCoR2) (Q9Y618 whole entry, the tested form may be a part): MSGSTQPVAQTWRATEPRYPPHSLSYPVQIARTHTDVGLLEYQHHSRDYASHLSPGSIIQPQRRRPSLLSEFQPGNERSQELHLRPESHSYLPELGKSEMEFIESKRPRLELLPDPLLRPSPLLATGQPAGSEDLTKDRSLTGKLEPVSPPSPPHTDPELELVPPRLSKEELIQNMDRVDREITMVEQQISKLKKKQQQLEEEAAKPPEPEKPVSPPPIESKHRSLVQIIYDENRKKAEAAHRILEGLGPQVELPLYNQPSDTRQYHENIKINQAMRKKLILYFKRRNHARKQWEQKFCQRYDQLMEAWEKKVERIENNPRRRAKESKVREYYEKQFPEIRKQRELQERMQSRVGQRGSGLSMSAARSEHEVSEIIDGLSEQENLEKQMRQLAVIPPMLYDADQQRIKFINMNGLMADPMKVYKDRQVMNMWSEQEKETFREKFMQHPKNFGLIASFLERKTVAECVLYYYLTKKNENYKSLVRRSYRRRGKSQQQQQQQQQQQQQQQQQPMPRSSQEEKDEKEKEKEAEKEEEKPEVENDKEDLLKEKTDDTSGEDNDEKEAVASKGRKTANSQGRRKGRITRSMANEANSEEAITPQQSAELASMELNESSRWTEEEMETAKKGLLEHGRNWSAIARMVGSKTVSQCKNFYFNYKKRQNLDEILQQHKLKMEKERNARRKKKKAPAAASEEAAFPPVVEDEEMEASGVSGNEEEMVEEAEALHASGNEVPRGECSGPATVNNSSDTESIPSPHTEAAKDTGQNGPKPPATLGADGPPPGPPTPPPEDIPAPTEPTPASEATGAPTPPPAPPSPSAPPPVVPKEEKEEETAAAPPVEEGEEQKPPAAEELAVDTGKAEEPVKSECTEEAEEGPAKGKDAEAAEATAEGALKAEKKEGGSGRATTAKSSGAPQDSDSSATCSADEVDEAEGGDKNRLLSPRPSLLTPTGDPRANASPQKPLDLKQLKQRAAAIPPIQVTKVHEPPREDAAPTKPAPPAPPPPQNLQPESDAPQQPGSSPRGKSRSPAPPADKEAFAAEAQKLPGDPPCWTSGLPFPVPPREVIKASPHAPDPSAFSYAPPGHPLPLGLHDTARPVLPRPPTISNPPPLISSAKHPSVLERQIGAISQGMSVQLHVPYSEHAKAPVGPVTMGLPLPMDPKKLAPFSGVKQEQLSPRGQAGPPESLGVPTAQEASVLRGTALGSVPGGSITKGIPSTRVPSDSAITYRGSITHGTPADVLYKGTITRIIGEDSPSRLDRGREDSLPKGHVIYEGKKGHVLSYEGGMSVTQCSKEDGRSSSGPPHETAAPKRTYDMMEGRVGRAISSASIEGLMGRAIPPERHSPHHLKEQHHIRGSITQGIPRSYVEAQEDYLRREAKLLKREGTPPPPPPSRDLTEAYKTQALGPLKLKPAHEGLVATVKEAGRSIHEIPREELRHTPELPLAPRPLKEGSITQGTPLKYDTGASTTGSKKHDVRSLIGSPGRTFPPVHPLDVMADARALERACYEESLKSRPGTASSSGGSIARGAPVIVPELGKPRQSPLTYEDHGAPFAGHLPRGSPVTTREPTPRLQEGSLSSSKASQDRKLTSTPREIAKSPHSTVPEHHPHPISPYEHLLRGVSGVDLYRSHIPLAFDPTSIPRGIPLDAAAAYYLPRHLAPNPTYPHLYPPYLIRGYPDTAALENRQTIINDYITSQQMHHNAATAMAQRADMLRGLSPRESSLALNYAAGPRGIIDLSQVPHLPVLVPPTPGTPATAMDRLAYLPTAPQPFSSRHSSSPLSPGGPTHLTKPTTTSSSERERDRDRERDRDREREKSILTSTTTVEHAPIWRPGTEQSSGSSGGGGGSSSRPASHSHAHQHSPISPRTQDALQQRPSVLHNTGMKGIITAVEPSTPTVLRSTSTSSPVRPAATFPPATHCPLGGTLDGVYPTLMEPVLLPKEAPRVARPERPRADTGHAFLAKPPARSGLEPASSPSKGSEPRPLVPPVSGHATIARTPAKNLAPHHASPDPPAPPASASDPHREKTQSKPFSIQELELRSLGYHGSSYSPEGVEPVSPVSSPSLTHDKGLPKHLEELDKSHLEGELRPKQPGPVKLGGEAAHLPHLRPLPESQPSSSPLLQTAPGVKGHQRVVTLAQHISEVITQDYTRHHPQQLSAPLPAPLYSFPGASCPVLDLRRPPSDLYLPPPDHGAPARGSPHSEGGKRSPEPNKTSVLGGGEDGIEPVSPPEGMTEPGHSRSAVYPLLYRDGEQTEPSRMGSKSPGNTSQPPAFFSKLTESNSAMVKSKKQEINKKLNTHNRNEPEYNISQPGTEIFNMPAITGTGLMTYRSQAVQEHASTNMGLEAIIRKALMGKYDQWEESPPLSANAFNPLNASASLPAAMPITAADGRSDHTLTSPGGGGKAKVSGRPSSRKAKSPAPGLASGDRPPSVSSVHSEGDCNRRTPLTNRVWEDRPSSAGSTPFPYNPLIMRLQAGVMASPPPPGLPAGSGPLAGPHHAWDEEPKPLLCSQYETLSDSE

On to `CCCCNNC(=O)c1ccc(Br)cc1` [UF010], for which the 50% inhibitory concentration (IC50) (in general, the concentration that gives 50% inhibition) is 60 nM.

The record behind these values is BindingDB's records for doi:10.1021/acs.jmedchem.0c00830 (University of East Anglia, 2020).
